Measured values from patent US20170030891A1, “BLOOD CONDITION ANALYSIS DEVICE, BLOOD CONDITION ANALYSIS SYSTEM, BLOOD CONDITION ANALYSIS METHOD, AND PROGRAM” (SONY CORPORATION, priority 2014, published 2017).

Tests used:
platelet factors = assay: time-dependent changes in real part of complex permittivity of blood samples having different CyD concentrations at 10 MHz; type: cell-based
Description: The electrical characteristic measurement device 10 includes a measurement unit that applies a voltage between a pair of electrodes provided in a sample container filled with a blood sample to be evaluated, and measures the electrical characteristics of the blood sample over time at a specific frequency or frequency band. Examples of electrical characteristics measured by the electrical characteristic measurement device 10 include the impedance, conductance, admittance, capacitance, permittivity, conductivity, and phase angle, as well as amounts obtained by converting them into the amounts of electricity. Incidentally, the blood condition analysis system 1 of this embodiment can perform evaluation from at least one kind of these electrical characteristics, but may also utilize two or more kinds of electrical characteristics.
In the measurement step S1, the electrical characteristics of two or more blood samples adjusted from one blood specimen and having different drug types or concentrations are measured over time at a specific frequency or frequency band. At this time, the conditions for the electrical characteristic measurement are not particularly limited, and may be suitably set according to the kind of electrical characteristics and the like within a range where the blood to be evaluated is not deteriorated.
In the analysis step S2, utilizing data of time-dependent changes in the electrical characteristics measured by the electrical characteristic measurement device 10, the influence of the drug or a factor in the blood on the coagulation system or fibrinolysis system of the blood is evaluated by the blood condition analysis device 11. For example, from data of time-dependent changes in the electrical characteristic of each blood sample, parameters conventionally used for the evaluation of the coagulation system or fibrinolysis system of blood are calculated. […]
In addition, for example, in the case where the coagulation system is evaluated, examples of coagulation factors to be evaluated include platelet factors and fibrinogen. […]

platelets = assay: Example 1: complex permittivity in the process of coagulation of blood with CyD or Pefabloc at various concentrations; type: cell-based; details: sample with Pefabloc concentration 0%, FIG. 24; addition of 8 μl of CyD to 180 μl of blood; blood from a healthy individual
Method: (§1) Hereinafter, the effects of the present disclosure will be described in detail. In this example, CyD or Pefabloc was added at various concentrations to a blood sample collected from a healthy individual, and changes in the complex permittivity in the process of coagulation were measured.
(§2) As shown in the following Mathematical Formula 1, the clot firmness CF depends on the effective concentration of platelets PLT and the effective concentration of fibrinogen FIB. Incidentally, a, b, and c in the following Mathematical Formula 1 are parameters determined by measurement.
(§3) Here, by applying the analysis method shown in FIG. 8 to the data of a sample having a Pefabloc concentration of 0% shown in FIG. 24, it can be estimated that the CyD concentration at which the contribution of platelets disappears is 3.4 μg/ml (the addition of 8 μl of CyD to 180 μl of blood). As a result, the effective concentration of platelets (142000/μl) can be determined. In a similar manner, the amount of fibrinogen can be determined using the data of a sample having a CyD concentration of 0% shown in FIG. 25.

fibrinogen [1] = biological target: T1, fibrinogen (Homo sapiens, UniProt P02675+P02679); assay: as above; details: from PFG concentration dependence at CyD concentration 0, FIG. 25; blood from a healthy individual
T1 construct: from tissue; host or cells: blood sample (donor not described)
Method: as §1, §2, §3
Then, the effective concentration of platelets PLT can be estimated from data of CyD concentration dependence. In addition, the effective concentration of fibrinogen FIB can be estimated from data of PFG concentration dependence. […]

fibrinogen [2] = biological target: T1, fibrinogen; assay: coagulation amplitude and coagulation time of blood samples vs fibrinogen inhibitor (Pefabloc) concentration; details: relation to Pefabloc concentration, FIG. 15A and 15B
Description: Further, by using a fibrinogen inhibitor, such as Pefabloc, as the drug, the influence of fibrinogen can also be evaluated. FIG. 15A is a diagram showing the relation between the fibrinogen inhibitor (Pefabloc) concentration and the coagulation amplitude, while FIG. 15B is a diagram showing the relation with the coagulation time. […] Thus, utilizing this characteristic, the influence of fibrinogen can be evaluated, or the amount of fibrinogen can be estimated.

[3] = test system: fibrinolysis system of the blood; assay: complex permittivity at 10 MHz of blood samples with fibrinolysis system promotor (tPA) and inhibitor (aprotinin); details: aprotinin added to blood with tPA, 10 MHz, FIG. 10
Method: In addition, for example, in the case where the fibrinolysis system is evaluated, examples of coagulation factors to be evaluated include plasminogen and plasmin. In that case, as a drug to be added to the blood sample, an activator or inhibitor of plasminogen or plasmin is usable. FIG. 9 is a diagram showing time-dependent changes in the real part (∈′) of the complex permittivity at 10 MHz of blood samples having different fibrinolysis system promotor (tPA) and fibrinolysis system inhibitor (aprotinin) concentrations.
For the evaluation of the fibrinolysis-system blood, for example, a value obtained by dividing the amplitude after 30 minutes from the time B shown in FIGS. 2A-2B by the amplitude at the time B (LI30: the source of clot firmness after a predetermined period of time from the maximum firmness accompanying fibrinolysis) can be used as an evaluation parameter.

blood coagulation = assay: complex permittivity at 10 MHz of blood samples having different heparin concentrations; details: relation to heparin concentration, FIG. 12
Method: The blood condition analysis method of this embodiment is not limited to the evaluation criteria and evaluation methods described above. For example, it is also possible that heparin is used as the drug, and the suppressing effect of heparin on blood coagulation is evaluated. FIG. 11 is a diagram showing time-dependent changes in the real part (∈′) of the complex permittivity of blood samples having different heparin concentrations at 10 MHz, and FIG. 12 is a diagram showing the relation between the clotting time determined from the values of ∈′ at 10 MHz shown in FIG. 11 and the heparin concentration. In addition, FIG. 13 is a diagram showing the coagulation curves of blood samples having different heparin concentrations, and FIG. 14 is a diagram showing the relation between the heparin concentration and the difference in clotting time.

T1 sequence (P02671 20-629 partner limits assumed): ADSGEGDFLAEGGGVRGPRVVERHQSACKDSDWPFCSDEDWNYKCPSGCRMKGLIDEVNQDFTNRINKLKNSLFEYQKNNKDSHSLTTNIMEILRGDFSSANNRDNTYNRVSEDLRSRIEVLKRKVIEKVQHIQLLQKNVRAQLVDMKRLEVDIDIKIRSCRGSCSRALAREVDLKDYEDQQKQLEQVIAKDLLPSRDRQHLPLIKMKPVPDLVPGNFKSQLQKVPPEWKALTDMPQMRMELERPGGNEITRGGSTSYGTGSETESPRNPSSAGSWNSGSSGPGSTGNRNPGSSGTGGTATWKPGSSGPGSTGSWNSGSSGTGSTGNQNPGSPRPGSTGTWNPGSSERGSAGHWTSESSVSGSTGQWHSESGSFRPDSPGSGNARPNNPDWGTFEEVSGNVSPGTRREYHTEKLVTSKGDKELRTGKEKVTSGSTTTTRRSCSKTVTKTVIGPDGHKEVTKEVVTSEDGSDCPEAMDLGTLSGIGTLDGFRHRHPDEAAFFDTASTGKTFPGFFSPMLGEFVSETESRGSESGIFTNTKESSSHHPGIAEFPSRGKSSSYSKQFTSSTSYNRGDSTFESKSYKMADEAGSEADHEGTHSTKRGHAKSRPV
T1 sequence (P02675 31-491): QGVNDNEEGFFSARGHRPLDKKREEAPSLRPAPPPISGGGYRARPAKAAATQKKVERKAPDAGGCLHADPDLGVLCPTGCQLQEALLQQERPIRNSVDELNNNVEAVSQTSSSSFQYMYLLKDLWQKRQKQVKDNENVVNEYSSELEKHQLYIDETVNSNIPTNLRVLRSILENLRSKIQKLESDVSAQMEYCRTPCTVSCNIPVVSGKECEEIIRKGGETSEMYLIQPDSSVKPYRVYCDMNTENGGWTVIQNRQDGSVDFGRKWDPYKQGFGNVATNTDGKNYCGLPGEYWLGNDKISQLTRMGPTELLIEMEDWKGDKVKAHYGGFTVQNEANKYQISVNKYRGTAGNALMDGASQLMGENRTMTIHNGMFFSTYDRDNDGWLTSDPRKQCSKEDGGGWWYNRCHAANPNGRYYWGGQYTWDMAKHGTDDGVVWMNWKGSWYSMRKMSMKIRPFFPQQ
T1 sequence (P02679 27-433 limits assumed): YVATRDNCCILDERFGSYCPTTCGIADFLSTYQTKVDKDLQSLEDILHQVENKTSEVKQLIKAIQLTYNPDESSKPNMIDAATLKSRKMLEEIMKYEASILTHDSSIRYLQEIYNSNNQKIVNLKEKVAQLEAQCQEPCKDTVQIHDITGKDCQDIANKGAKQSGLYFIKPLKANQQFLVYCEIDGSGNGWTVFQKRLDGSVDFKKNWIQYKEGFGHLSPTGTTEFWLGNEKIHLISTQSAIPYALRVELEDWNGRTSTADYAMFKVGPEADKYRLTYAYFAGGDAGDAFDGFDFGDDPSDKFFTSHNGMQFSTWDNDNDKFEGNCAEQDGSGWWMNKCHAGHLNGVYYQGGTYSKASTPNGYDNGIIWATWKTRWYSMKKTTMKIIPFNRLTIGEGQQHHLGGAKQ

C=C1[C@@H](C)[C@H]2[C@H](Cc3ccccc3)NC(=O)[C@]23[C@H](OC(C)=O)/C=C/[C@@](C)(O)C(=O)[C@@H](C)C/C=C/[C@H]3[C@@H]1O [CyD, cytochalasin D]
amount of CyD for inhibiting the platelet factors (platelet factors; blood sample of FIG. 8, number of platelets 136500 per 1 μl): 25 ng per platelet | minimum drug dose to completely suppress the action of platelet factors (platelet factors; from coagulation rate vs CyD concentration (FIG. 8), agrees with coagulation rate of blood sample containing excess CyD): 3.3 µg/mL | coagulation amplitude and coagulation rate determined from the real part of the complex permittivity (platelet factors; relation to CyD concentration, FIG. 7 and FIG. 8): correlated with the CyD concentration | CyD concentration at which the contribution of platelets disappears (platelets): 3.4 µg/mL

H-Gly-Pro-Arg-Pro-OH×AcOH (H-GPRP-OH; also: acetate salt) [Pefabloc, fibrinogen function suppressor]
effective concentration of fibrinogen FIB (equivalent PFG) (fibrinogen [1]): 1000 µg/mL | coagulation amplitude and clotting time (fibrinogen [2]): the coagulation amplitude and the clotting time change with an increase in the fibrinogen inhibitor (Pefabloc) concentration

aprotinin
LI30 (amplitude after 30 minutes from time B divided by amplitude at time B) [3]: turns back to the value of the control blood sample

heparin
clotting time determined from ∈′ at 10 MHz (blood coagulation): the clotting time increases with an increase in the heparin concentration
